Patent publication US7238701B2, “Substituted tetrahydrobenzothienopyrimidinamine compounds useful for treating hyper-proliferative disorders” (Bayer Pharmaceuticals Corporation, priority 2003, dated 2007)
pIC50: −log10 of the molar value.

Assays:
[1] = system: A431cells (human epidermoid carcinoma); assay: In vitro tumor cell proliferation assay (Cell Titer-Glo luminescent cell viability), A431 cells; type: cell-based; details: A-431, 72 h, 72 hours drug exposure, 10% Fetal Bovine Serum, ATP luminescence readout, read-out: IC50 (50% inhibition of cell proliferation)
How it was run: (§1)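 ATP luminescence (CellTiter-Glo) measured proliferation after 72 h compound exposure at 37 °C, giving IC50 values. Serial dilutions spanning 64 pM–100 μM in 0.1% DMSO were applied one day after plating 2.5×10^3 cells/well in RPMI plus 10% fetal bovine serum.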

[2] = system: BT474 (human breast carcinoma); assay: In vitro tumor cell proliferation assay (Cell Titer-Glo luminescent cell viability), BT474 cells; type: cell-based; details: BT-474, 72 hours drug exposure, 10% Fetal Bovine Serum, ATP luminescence readout, read-out: IC50 (50% inhibition of cell proliferation)
How it was run: as §1

Row | Structure (SMILES) | pIC50 [1] | pIC50 [2]
1 | COCCNC(=O)C1CCc2c(sc3ncnc(Nc4ccc(F)c(Cl)c4)c23)C1 (centres unmarked) [Example 16, 4-[(3-chloro-4-fluorophenyl)amino]-N-(2-methoxyethyl)-5,6,7,8-tetrahydro[1]benzothieno[2,3-d]pyrimidine-7-carboxamide] | > 4.30 | > 4.30
2 | O=C(O)C1CCc2c(sc3ncnc(Nc4cccc(Br)c4)c23)C1 (centres unmarked) [Example 1, 4-[(3-bromophenyl)amino]-5,6,7,8-tetrahydro[1]benzothieno[2,3-d]pyrimidine-7-carboxylic acid] | > 4.30 | > 4.30
3 | CNCCC1CCc2c(sc3ncnc(Nc4ccc5c(cnn5Cc5ccccc5)c4)c23)C1 (centres unmarked) [Example 229, N-(1-benzyl-1H-indazol-5-yl)-7-[2-(methylamino)ethyl]-5,6,7,8-tetrahydro[1]benzothieno[2,3-d]pyrimidin-4-amine] | > 4.30 | > 5.30
4 | C=CCNC(=O)C1CCc2c(sc3ncnc(Nc4cccc(Br)c4)c23)C1 (centres unmarked) [Example 56, N-allyl-4-[(3-bromophenyl)amino]-5,6,7,8-tetrahydro[1]benzothieno[2,3-d]pyrimidine-7-carboxamide] | > 4.30 | > 4.30
5 | CN(C)[C@@H]1CCN(CCC2CCc3c(sc4ncnc(Nc5cccc(Br)c5)c34)C2)C1 (stereo partly drawn) [Example 94, N-(3-bromophenyl)-7-{2-[(3R)-3-(dimethylamino)-1-pyrrolidinyl]ethyl}-5,6,7,8-tetrahydro[1]benzothieno[2,3-d]pyrimidin-4-amine] | > 5.30 | > 5.30
6 | COCCN(C)CCC1CCc2c(sc3ncnc(Nc4ccc(Oc5ccc(C)nc5)c(C)c4)c23)C1 (centres unmarked) [Example 218, 7-{2-[(2-methoxyethyl)(methyl)amino]ethyl}-N-{3-methyl-4-[(6-methylpyridin-3-yl)oxy]phenyl}-5,6,7,8-tetrahydro[1]benzothieno[2,3-d]pyrimidin-4-amine] | > 4.30 | > 5.30
7 | CCOC(=O)CC1CCc2c(sc3ncnc(Nc4ccc(OCc5ccccn5)c(Cl)c4)c23)C1 (centres unmarked) [Example 173, {4-[3-Chloro-4-(pyridin-2-ylmethoxy)-phenylamino]-5,6,7,8-tetrahydro-benzo[4,5]thieno[2,3-d]pyrimidin-7-yl}-acetic acid ethyl ester] | > 4.30 | > 5.30
8 | Brc1cccc(Nc2ncnc3sc4c(c23)CCC(CCN2CCOCC2)C4)c1 (centres unmarked) [Example 45, N-(3-bromophenyl)-7-[2-(4-morpholinyl)ethyl]-5,6,7,8-tetrahydro[1]benzothieno[2,3-d]pyrimidin-4-amine] | > 5.30 | > 5.30
9 | COc1ccc(NCCC2CCc3c(sc4ncnc(Nc5ccc(F)c(Cl)c5)c34)C2)cc1 (centres unmarked) [Example 76, N-(3-chloro-4-fluorophenyl)-7-{2-[(4-methoxyphenyl)amino]ethyl}-5,6,7,8-tetrahydro[1]benzothieno[2,3-d]pyrimidin-4-amine] | > 4.30 | > 4.30
10 | CN(C)CCNCCC1CCc2c(sc3ncnc(Nc4ccc(F)c(Cl)c4)c23)C1 (centres unmarked) [Example 98, N^1-(2-{4-[(3-chloro-4-fluorophenyl)amino]-5,6,7,8-tetrahydro[1]benzothieno[2,3-d]pyrimidin-7-yl}ethyl)-N^2,N^2-dimethyl-1,2-ethanediamine] | > 5.30 | > 5.30
11 | COCCN(C)CCC1CCc2c(sc3ncnc(Nc4ccc(OCc5ccc(F)cc5)c(Cl)c4)c23)C1 (centres unmarked) [Example 152, N-{3-chloro-4-[(4-fluorobenzyl)oxy]phenyl}-7-{2-[(2-methoxyethyl)(methyl)amino]ethyl}-5,6,7,8-tetrahydro[1]benzothieno[2,3-d]pyrimidin-4-amine] | > 5.30 | > 5.30
12 | CCOC(=O)CC1CCc2c(sc3ncnc(Nc4ccc(OCc5cccc(F)c5)c(Cl)c4)c23)C1 (centres unmarked) [Example 136, {4-[3-Chloro-4-(3-fluoro-benzyloxy)-phenylamino]-5,6,7,8-tetrahydro-benzo[4,5]thieno[2,3-d]pyrimidin-7-yl}-acetic acid ethyl ester] | > 4.30 | > 5.30

More lines, now with the values ahead:

Row | pIC50 [1] | pIC50 [2] | Structure (SMILES)
13 | > 5.30 | > 5.30 | CN(C)CCCCNCCC1CCc2c(sc3ncnc(Nc4ccc5c(cnn5Cc5ccccc5)c4)c23)C1 (centres unmarked) [Example 212, N′-(2-{4-[(1-benzyl-1H-indazol-5-yl)amino]-5,6,7,8-tetrahydro[1]benzothieno[2,3-d]pyrimidin-7-yl}ethyl)-N,N-dimethylbutane-1,4-diamine]
14 | > 5.30 | > 5.30 | O[C@@H]1CCN(CCC2CCc3c(sc4ncnc(Nc5ccc(OCc6cccc(F)c6)c(Cl)c5)c34)C2)C1 (stereo partly drawn) [Example 197, (3R)-1-{2-[4-({3-chloro-4-[(3-fluorobenzyl)oxy]phenyl}amino)-5,6,7,8-tetrahydro[1]benzothieno[2,3-d]pyrimidin-7-yl]ethyl}pyrrolidin-3-ol]
15 | > 5.30 | > 5.30 | Cc1ccc(Oc2ccc(Nc3ncnc4sc5c(c34)CCC(CCN(C)CCO)C5)cc2C)cn1 (centres unmarked) [Example 222, 2-(methyl{2-(4-({3-methyl-4-[(6-methylpyridin-3-yl)oxy]phenyl}amino)-5,6,7,8-tetrahydro[1]benzothieno[2,3-d]pyrimidin-7-yl]ethyl}amino)ethanol]
16 | > 5.30 | > 5.30 | COCCNCCC1CCc2c(sc3ncnc(Nc4cccc(Br)c4)c23)C1 (centres unmarked) [Example 86, N-(3-bromophenyl)-7-{2-[(2-methoxyethyl)amino]ethyl}-5,6,7,8-tetrahydro[1]benzothieno[2,3-d]pyrimidin-4-amine]
17 | > 5.30 | > 5.30 | CS(=O)(=O)CCNCCC1CCc2c(sc3ncnc(Nc4ccc5c(cnn5Cc5ccccc5)c4)c23)C1 (centres unmarked) [Example 210, N-(1-benzyl-1H-indazol-5-yl)-7-(2-{[2-(methylsulfonyl)ethyl]amino}ethyl)-5,6,7,8-tetrahydro[1]benzothieno[2,3-d]pyrimidin-4-amine]
18 | > 5.30 | > 5.30 | CN(C)CCC1CCc2c(sc3ncnc(Nc4ccc(OCc5cccc(F)c5)c(Cl)c4)c23)C1 (centres unmarked) [Example 164, N-{3-chloro-4-[(3-fluorobenzyl)oxy]phenyl}-7-[2-(dimethylamino)ethyl]-5,6,7,8-tetrahydro[1]benzothieno[2,3-d]pyrimidin-4-amine]
19 | > 5.30 | > 5.30 | CS(=O)(=O)CCNC(=O)CC1CCc2c(sc3ncnc(Nc4cccc(Br)c4)c23)C1 (centres unmarked) [Example 77, 2-{4-[(3-bromophenyl)amino]-5,6,7,8-tetrahydro[1]benzothieno[2,3-d]pyrimidin-7-yl}-N-[2-(methylsulfonyl)ethyl]acetamide]
20 | > 5.30 | > 5.30 | Fc1cccc(COc2ccc(Nc3ncnc4sc5c(c34)CCC(CCN3CCCCC3)C5)cc2Cl)c1 (centres unmarked) [Example 167, N-{3-chloro-4-[(3-fluorobenzyl)oxy]phenyl}-7-(2-piperidin-1-ylethyl)-5,6,7,8-tetrahydro[1]benzothieno[2,3-d]pyrimidin-4-amine]
21 | > 5.30 | > 5.30 | CN(C)[C@@H]1CCN(C(=O)C2CCc3c(sc4ncnc(Nc5cccc(Br)c5)c34)C2)C1 (stereo partly drawn) [Example 60, N-(3-bromophenyl)-7-{[(3R)-3-(dimethylamino)-1-pyrrolidinyl]carbonyl}-5,6,7,8-tetrahydro[1]benzothieno[2,3-d]pyrimidin-4-amine]
22 | > 5.30 | > 5.30 | CN1CCN(CCC2CCc3c(sc4ncnc(Nc5ccc(OCc6cccc(F)c6)c(Cl)c5)c34)C2)CC1 (centres unmarked) [Example 158, N-{3-chloro-4-[(3-fluorobenzyl)oxy]phenyl}-7-[2-(4-methylpiperazin-1-yl)ethyl]-5,6,7,8-tetrahydro[1]benzothieno[2,3-d]pyrimidin-4-amine]
23 | > 5.30 | > 5.30 | CS(=O)(=O)CCNCCC1CCc2c(sc3ncnc(Nc4ccc(OCc5ccccn5)c(Cl)c4)c23)C1 (centres unmarked) [Example 178, N-[3-chloro-4-(pyridin-2-ylmethoxy)phenyl]-7-(2-{[2-(methylsulfonyl)ethyl]amino}ethyl)-5,6,7,8-tetrahydro[1]benzothieno[2,3-d]pyrimidin-4-amine]
24 | > 5.30 | > 5.30 | COCCN(C)CCC1CCc2c(sc3ncnc(Nc4ccc(OCc5ccccn5)c(Cl)c4)c23)C1 (centres unmarked) [Example 189, N-[3-chloro-4-(pyridin-2-ylmethoxy)phenyl]-7-{2-[(2-methoxyethyl)(methyl)amino]ethyl}-5,6,7,8-tetrahydro[1]benzothieno[2,3-d]pyrimidin-4-amine]
25 | > 5.30 | > 5.30 | Cc1ccc(Oc2ccc(Nc3ncnc4sc5c(c34)CCC(CCN3CCCC3)C5)cc2C)cn1 (centres unmarked) [Example 221, N-{3-methyl-4-[(6-methylpyridin-3-yl)oxy]phenyl}-7-(2-pyrrolidin-1-ylethyl)-5,6,7,8-tetrahydro[1]benzothieno[2,3-d]pyrimidin-4-amine]
26 | > 5.30 | > 5.30 | CN1CCN(C(=O)CC2CCc3c(sc4ncnc(Nc5ccc(Br)cc5F)c34)C2)CC1 (centres unmarked) [Example 105, N-(4-bromo-2-fluorophenyl)-7-[2-(4-methyl-1-piperazinyl)-2-oxoethyl]-5,6,7,8-tetrahydro[1]benzothieno[2,3-d]pyrimidin-4-amine]
27 | > 5.30 | > 5.30 | CN1CCN(CC2CCc3c(sc4ncnc(Nc5ccc(Br)cc5F)c34)C2)CC1 (centres unmarked) [Example 22]
28 | > 5.30 | > 5.30 | Cc1ccc(Oc2ccc(Nc3ncnc4sc5c(c34)CCC(CCNCCN(C)C)C5)cc2C)cn1 (centres unmarked) [Example 230, N,N-dimethyl-N′-{2-[4-({3-methyl-4-[(6-methylpyridin-3-yl)oxy]phenyl}amino)-5,6,7,8-tetrahydro[1]benzothieno[2,3-d]pyrimidin-7-yl]ethyl}ethane-1,2-diamine]
